Measured values published in patent publication US4226879A, “Antibiotic composition” (Kyowa Hakko Kogyo Kabushiki Kaisha, priority 1976, dated 1980).
Converted amounts (≈) assume the structure as drawn. “Also recorded” adds a separate entry of the source.

Columns and labels:
[1] = tested on: Eimeria tenella K-2, E. acervulina and E. maxima; test: anticoccidial test in chicks, mixed infection (Example 5); assay type: in vivo, E. maxima (in chicks); set-up: key to Caecal lession: -: not infected; +: light; ++: middle; +++: heavy; settings: for RIW (ratio of the increase of the body weight): vs healthy chicks
Description: The results are shown in Table 5 where the ratio of the increase of the body weight (RIW) is calculated as follows: (RIW (%)=[weight at the completion of the test (in average)]/[weight of healthy chicks (control) in average]×100%.

[2] = tested on: Mycobacterium smegmatis ATCC 607; test: MIC, agar dilution method; assay type: cell-based; settings: Mycolicibacterium smegmatis, ATCC607; pH 7.0, 37° C., 18 hours
poultry [3] = test: growth-promoting effect in poultry; assay type: in vivo; settings: 0.001 to 0.02% by weight of the diet
Excerpt: Thus, AM-1042 is potentially of interest owing to its growth-promoting effect. For this purpose, the mode of administration is analogous to those described above.

[4] = tested on: Bacillus subtilis PCI 219; test: MIC, agar dilution method; assay type: cell-based; settings: PCI219, pH 7.0, 37° C., 18 hours
Sclerotinia cinerea = test: MIC, agar dilution method; assay type: cell-based; settings: pH 6.8, 27° C. 72 hours
Nocardia asteroides = test: MIC, agar dilution method; assay type: cell-based
Escherchia coli NIHJ = test: MIC, agar dilution method; assay type: cell-based; settings: pH 7.0, 37° C., 18 hours
[5] = tested on: Klebsiella pneumoniae PCI 602; test: MIC, agar dilution method; assay type: cell-based; settings: PCI602, pH 7.0, 37° C., 18 hours
Micrococcus flavus 16 = test: MIC, agar dilution method; assay type: cell-based; settings: pH 7.0, 37° C., 18 hours
Eimeria maxima = test: anticoccidial activity; assay type: in vivo
[6] = tested on: Pseudomonas aerginosa P-3; test: MIC, agar dilution method; assay type: cell-based; settings: P3, pH 7.0, 37° C., 18 hours
B. anthracis = test: microbe, parasite or virus in culture; assay type: cell-based; settings: Bacillus anthracis, 18 h, pH 7
[7] = tested on: Staphylococcus aureus FDA 209P; test: MIC, agar dilution method; assay type: cell-based; settings: FDA209P, pH 7.0, 37° C., 18 hours
B. cereus T = test: MIC, agar dilution method; assay type: cell-based
S. aureus FDA 209P JC-1 = test: MIC, agar dilution method; assay type: cell-based; settings: Staphylococcus aureus, FDA209P; pH 7.0, 37° C., 18 hours
B. megaterium APF = test: MIC, agar dilution method; assay type: cell-based; settings: Priestia megaterium; pH 7.0, 37° C., 18 hours
Botrytis cinerea = test: MIC, agar dilution method; assay type: cell-based; settings: pH 6.8, 27° C. 72 hours
Piricularia oryzae = test: microbe, parasite or virus in culture; assay type: cell-based; settings: 72 h, pH 6.8
[8] = tested on: S. aureus KB-64 (tetracycline & erythromycin-resistant); test: MIC, agar dilution method; assay type: cell-based; settings: Staphylococcus aureus; pH 7.0, 37° C., 18 hours
Eimeria tenella = test: anticoccidial activity; assay type: in vivo
[9] = solubility in various solvents; assay type: physicochemical
Candida albicans = test: MIC, agar dilution method; assay type: cell-based; settings: pH 6.8, 27° C. 72 hours
Sarcina lutea PCI 1001 = test: MIC, agar dilution method; assay type: cell-based
Fusarium oxysporum = test: MIC, agar dilution method; assay type: cell-based; settings: pH 6.8, 27° C. 72 hours
B. subtilis ATCC 6633 = test: MIC, agar dilution method; assay type: cell-based; settings: Bacillus subtilis, ATCC6633; pH 7.0, 37° C., 18 hours
Alternaria kikuchiana = test: MIC, agar dilution method; assay type: cell-based; settings: pH 6.8, 27° C. 72 hours
E. coli B = test: MIC, agar dilution method; assay type: cell-based; settings: Escherichia coli; pH 7.0, 37° C., 18 hours
Description: (§1) Table 1 indicates the antibacterial and antifungal activity of AM-1042 as minimum inhibitory concentration (mcg/ml) determined by the agar dilution method.
(§2) *Peptone 0.5%; meat extract 0.5%; agar 1.2% (pH 7.0), 37° C., 18

S. albus = test: MIC, agar dilution method; assay type: cell-based; settings: pH 7.0, 37° C., 18 hours
Description: as §1, §2

Shigella sonnei E-33 = test: MIC, agar dilution method; assay type: cell-based; settings: E33, pH 7.0, 37° C., 18 hours
Description: as §1, §2

B. agri = test: MIC, agar dilution method; assay type: cell-based; settings: pH 7.0, 37° C., 18 hours
Description: as §1, §2

poultry [10] = test: side effects in poultry; assay type: in vivo, poultry such as chickens; settings: pharmaceutical composition or assorted diet, chickens, turkeys
mice = settings: mouse, in vivo, 450 mg/kg
[11] = tested on: S. aureus FS-1277 (penicillin-resistant); test: MIC, agar dilution method; assay type: cell-based; settings: Staphylococcus aureus; pH 7.0, 37° C., 18 hours
Sacchromyces cerevisiae = test: MIC, agar dilution method; assay type: cell-based; settings: pH 6.8, 27° C. 72 hours

## O=C(/C=C/C=C/C=C/C1CCCCC1)NC1=CC(O)(/C=C/C=C/C=C/C(=O)NC2=C(O)CCC2=O)C2OC2C1=O (centres unmarked) [AM-1042]
[1]; 0.005 % AM-1042 (Test-5)
  Caecal lession: +
  Survival ratio: 90%
  RIW (ratio of the increase of the body weight): 98.7%
[1]; 0.0075 % AM-1042 (Test-4)
  Caecal lession: -
  Survival ratio: 100%
  RIW (ratio of the increase of the body weight): 99.9%
[1]; 0.01 % AM-1042 (Test-3)
  Caecal lession: -
  Survival ratio: 100%
  RIW (ratio of the increase of the body weight): 100.8%
[1]; 0.015 % AM-1042 (Test-2)
  Caecal lession: -
  Survival ratio: 100%
  RIW (ratio of the increase of the body weight): 100.5%
[1]; 0.02 % AM-1042 (Test-1)
  Caecal lession: -
  Survival ratio: 100%
  RIW (ratio of the increase of the body weight): 100.2%
[2]
  MIC: > 100 µg/mL
Poultry [3]
  growth-promoting effect: capable of promoting the growth of poultry; also recorded: exhibits a growth-promoting effect
[4]
  MIC: 3.1 µg/mL (≈ 5.67 µM)
Sclerotinia cinerea
  MIC: 100 µg/mL (≈ 183 µM)
Nocardia asteroides
  activity upon Nocarida asteroides: active
Nocardia asteroides; Nocardia asteroides, pH 7.0, 37° C., 18 hours
  MIC: 1.56 µg/mL (≈ 2.85 µM)
Escherchia coli NIHJ
  MIC: 100 µg/mL (≈ 183 µM)
[5]
  MIC: > 100 µg/mL
Micrococcus flavus 16
  MIC: 1.5 µg/mL (≈ 2.74 µM)
Eimeria maxima
  activity upon coccidiosis: significantly active
[6]
  MIC: > 100 µg/mL
B. anthracis
  MIC: 12.5 µg/mL (≈ 22.9 µM)
[7]
  MIC: 3.1 µg/mL (≈ 5.67 µM)
B. cereus T
  activity upon Bacillus cereus: active
B. cereus T; Bacillus cereus, pH 7.0, 37° C., 18 hours
  MIC: 3.1 µg/mL (≈ 5.67 µM)
S. aureus FDA 209P JC-1
  MIC: 0.7 µg/mL (≈ 1.28 µM)
B. megaterium APF
  MIC: 6.2 µg/mL (≈ 11.3 µM)
Botrytis cinerea
  MIC: > 100 µg/mL
Piricularia oryzae
  MIC: 100 µg/mL (≈ 183 µM)
[8]
  MIC: 6.2 µg/mL (≈ 11.3 µM)
Eimeria tenella; Eimeria tenella, also when resistant to amprolium hydrochloride, clopidol, robenidine hydrochloride
  activity upon coccidiosis: significantly active
Eimeria tenella; chicks infected with Eimeria tenella
  reducing mortality of chicks: effective in reducing mortality of chicks
[9]; in acetone
  solubility: Soluble
[9]; in chloroform
  solubility: Soluble
[9]; in dimethylformamide
  solubility: Easily soluble
[9]; in dimethylsulfoxide
  solubility: Easily soluble
[9]; in ethanol
  solubility: Soluble
[9]; in ethyl acetate
  solubility: Soluble
[9]; in fat
  solubility: soluble in fat
[9]; in methanol
  solubility: Soluble
[9]; in n-hexane
  solubility: Insoluble
[9]; in petroleum ether
  solubility: Insoluble
[9]; in water
  solubility: Insoluble
Candida albicans
  MIC: > 100 µg/mL
Sarcina lutea PCI 1001
  activity upon Sarcina lutea: active
Sarcina lutea PCI 1001; Micrococcus luteus, PCI1001, pH 7.0, 37° C., 18 hours
  MIC: 6.2 µg/mL (≈ 11.3 µM)
Fusarium oxysporum
  MIC: > 100 µg/mL
B. subtilis ATCC 6633
  MIC: 6.2 µg/mL (≈ 11.3 µM)
Alternaria kikuchiana
  MIC: > 100 µg/mL
E. coli B
  MIC: > 100 µg/mL
S. albus
  MIC: 12.5 µg/mL (≈ 22.9 µM)
Shigella sonnei E-33
  MIC: > 100 µg/mL
B. agri
  MIC: 12.5 µg/mL (≈ 22.9 µM)
Poultry [10]
  side effects in poultry: without any side effects
mice
  side effect on mice: no side effect
[11]
  MIC: 6.2 µg/mL (≈ 11.3 µM)
Sacchromyces cerevisiae
  MIC: > 100 µg/mL
